Reference: US20240226098A1, “COMPOUNDS AND METHODS FOR MODULATING SPLICING” (REMIX THERAPEUTICS INC., priority 2020, published 2024)

What was measured:
Assay type in all cases: cell-based
[1] = system: Target C CJ mRNA; experiment: Gene panel canonical junction qPCR assay: decrease in Target C CJ mRNA; conditions: protocol as for Table 2, read-out: Target C (IC50, decrease in CJ mRNA levels)
Procedure, shortened: (§1)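 A673 or K562 cells were treated 24 h at 37 °C with an 11-point 3-fold dilution series (top dose 10 uM final, DMSO ≤0.25%). Lysates went to RT-qPCR for the canonical exon-exon junction transcript, normalized to GAPDH, GUSB or PPIA. Levels were taken as ΔΔCt versus DMSO control and converted to RQ via 2^(−ΔΔCt).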

[2] = system: SMN2 CJ mRNA; experiment: Gene panel canonical junction qPCR assay: decrease in SMN2 CJ mRNA; conditions: protocol as for Table 2, read-out: SMN2 (IC50, decrease in CJ mRNA levels)
Procedure, shortened: as §1

[3] = system: HTT mRNA, canonical junction (CJ); experiment: Splicing assay (RT-qPCR): decrease in HTT canonical junction (CJ) mRNA; conditions: A673 or K562 cell line, 24 hours treatment, top dose 10 uM; concentration having 50% response in CJ decrease
Procedure, shortened: (§2)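 A673 (DMEM, 10% FBS) or K562 (IMDM, 10% FBS) cells treated 24 h at 37 °C with 11-point 3-fold dilutions, top 10 uM, ≤0.25% DMSO. Lysates analysed by one-step RT-qPCR for HTT CJ and AJ isoforms. Normalised to PPIA (A673) or GAPDH/GUSB (K562).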

[4] = system: HTT CJ mRNA; experiment: Gene panel canonical junction qPCR assay: decrease in HTT CJ mRNA; conditions: protocol as for Table 2, read-out: HTT (IC50, decrease in CJ mRNA levels)
Procedure, shortened: as §1

[5] = system: HTT mRNA, alternative junction (AJ); experiment: Splicing assay (RT-qPCR): increase in HTT alternative junction (AJ) mRNA; conditions: A673 or K562 cell line, 24 hours treatment, top dose 10 uM; concentration having 50% response in AJ increase
Procedure, shortened: as §2

Compound	IC50 [1] [nM]	IC50 [2] [nM]	AC50 [3] [nM]	IC50 [4] [nM]	AC50 [5] [nM]
CCN1CCC(c2ccc(C(=O)Nc3cc(F)c4nc(C)cn4c3)c3nnccc23)CC1 [Compound 141, 5-(1-ethylpiperidin-4-yl)-N-[8-fluoro-2-methylimidazo[1,2-a]pyridin-6-yl] cinnoline-8-carboxamide]	1000 to 10000	< 100	1000 to 10000	1000 to 10000	1000 to 10000
Cn1cc2ccc(NC(=O)c3ccc(N4CCNCC4)c4ccnnc34)cc2n1 [Compound 115, N-(2-methylindazol-6-yl)-5-(piperazin-1-yl) cinnoline-8-carboxamide]	> 10000	> 10000	> 10000	> 10000	> 10000
Cc1cn2cc(NC(=O)c3ccc(N4CC5(CNC5)C4)c4ccnnc34)cc(F)c2n1 [Compound 131, 5-[2,6-diazaspiro[3.3]heptan-2-yl]-N-[8-fluoro-2-methylimidazo[1,2-a]pyridin-6-yl]cinnoline-8-carboxamide]	100 to 1000	< 100	1000 to 10000	1000 to 10000	1000 to 10000
Cc1cn2cc(NC(=O)c3ccc(N4CCNC(C)C4)c4nccnc34)cc(F)c2n1 (centres unmarked) [Compound 157, N-[8-fluoro-2-methylimidazo[1,2-a]pyridin-6-yl]-8-(3-methylpiperazin-1-yl)quinoxaline-5-carboxamide]	1000 to 10000	< 100	100 to 1000	100 to 1000	100 to 1000
